The source of these data is patent US12404249B2, “Heterocyclic derivatives and use thereof” (C&C RESEARCH LABORATORIES, priority 2018, dated 2025).

SMILES strings stand for the structures.

Test [1] deals with prostate cancer cell line (LNCap). In words: Cell growth inhibition assay (Celltiter Glo). The format is cell-based. To be noted: Homo sapiens, LNCap cells, 120 hours incubation. The protocol:
Cancer cell inhibitory effects by the compounds of the Examples were evaluated as follows. The prostate cancer cell line (LNCap) used was cultured under the condition according to the vendor's recommendation. LNCap was dispensed into a 96-well plate at 10,000 cells/well. After incubation under the condition of 37° C. and 5% CO2 for 24 hours, the Example compounds of 50 mM DMSO stock were diluted to various concentrations and treated to the 96-well plate containing cells. After treatment of the Example compounds, LNCap cells were incubated in an incubator (37° C., 5% CO2) for 120 hours. After each incubation time, the 96-well plate was observed under a microscope to record the presence or absence of drug precipitation and specificities, and the 96-well plate was kept at room temperature for 30 minutes. Then, after addition of 20 μL of Celltiter Glo solution, the 96-well plate was well shaken for 30 minutes. The growth inhibitory activity was measured on microLUMA LB96P (BERTHOLD) instrument using Glo-vial protocol. As a negative control, a 96 well-plate in which culture medium was added but cells were not plated was used. As a positive control, a 96 well-plate in which cells were plated and 0.1% DMSO instead of drugs was added was used. The results of growth inhibitory effects of the Example compounds on prostate cancer cell line are represented in Table 2.

Another test concerns the target T1, STAT3 (Homo sapiens, UniProt P40763).
T1 construct: endogenous in cells; host or cells: LNCaP (human prostate cancer) stably carrying pSTAT3-TA-luc reporter plasmid
In words: STAT3 activation inhibition assay (reporter gene assay, LNcaP stable cell line, IL-6 stimulated). To be noted: LNcaP stable cell line [plasmid STAT3-TA-luc], IL-6 10 ng/mL, 48 hours, luciferase activity; read-out: IC50 (μM) pSTAT3. The format is cell-based. The protocol:
Cancer cell lines used for evaluating the compounds of the Examples were purchased from ATCC (American Type Culture Collection) or KCLB (Korean Cell Line Bank), and cultured according to the vendor's recommendation. The human prostate cancer cell line stably expressing the STAT3 promoter (LNcaP stable cell line [plasmid STAT3-TA-luc])—which was prepared to evaluate the inhibitory effect of the compounds of the Examples against dimerization of STAT3—was cultured in RPMI1640 (Cat no. 11875, Gibco), 10% fetal bovine serum (Cat no. SH30071.03, Hyclone) and 150 μg/mL G418 solution (Cat no. 04 727 894 001, Roche).
The reporter gene assay of LNcap stable cell line was carried out by the use of RPMI 1640 medium containing 3% DCC-FBS (without G-418). The cell line was dispensed into two (2) white 96-well plates at 30,000 cells/well/50 μL. The cell line was incubated for 24 hours under the condition of 37° C. and 5% CO2, and then the Example compounds of 50 mM DMSO stock were diluted to various concentrations and treated to two (2) white 96-well plates containing cells. Then, IL-6 was treated to a final concentration of 10 ng/mL. After the treatment of Example compounds and IL-6, the cells were cultured for 48 hours under the condition of 37° C. and 5% CO2. After 48 hours, the 96-well plates were observed under a microscope to record the presence or absence of drug precipitation and specificities, and the 96-well plates were kept at room temperature for 30 minutes. Then, in the case of the first 96-well plate, the culture medium on the plate was removed to measure the luciferase activity, and treated with passive lysis buffer at 20 µL/well and shaken for 30 minutes. The luciferase activity was measured on microLUMA LB96P (BERTHOLD) or Centro XS LB 960 (BERTHOLD) instrument using Luciferase assay system (Cat No. E1501, Promega Corporation). In the case of the second 96-well plate, 20 μL of Glo-mix solution was added to measure cytotoxicity by the compounds of the Examples, and the plate was well shaken for 10 minutes and analyzed on microLUMA LB96P (BERTHOLD) instrument using Glo-vial protocol. As a negative control, a 96 well-plate in which culture medium was added but cells were not plated was used. As a positive control, a 96 well-plate in which cells were plated and 0.1% DMSO and culture medium containing stimulation were added was used.
The results of evaluating the inhibitory effects of the compounds of the Examples against dimerization of STAT3 and STAT1 via STAT3 and STAT1 reporter gene assay are represented in Table 1.
In general terms: A reporter such as luciferase makes a cellular process visible.

T1 sequence (P40763 whole entry): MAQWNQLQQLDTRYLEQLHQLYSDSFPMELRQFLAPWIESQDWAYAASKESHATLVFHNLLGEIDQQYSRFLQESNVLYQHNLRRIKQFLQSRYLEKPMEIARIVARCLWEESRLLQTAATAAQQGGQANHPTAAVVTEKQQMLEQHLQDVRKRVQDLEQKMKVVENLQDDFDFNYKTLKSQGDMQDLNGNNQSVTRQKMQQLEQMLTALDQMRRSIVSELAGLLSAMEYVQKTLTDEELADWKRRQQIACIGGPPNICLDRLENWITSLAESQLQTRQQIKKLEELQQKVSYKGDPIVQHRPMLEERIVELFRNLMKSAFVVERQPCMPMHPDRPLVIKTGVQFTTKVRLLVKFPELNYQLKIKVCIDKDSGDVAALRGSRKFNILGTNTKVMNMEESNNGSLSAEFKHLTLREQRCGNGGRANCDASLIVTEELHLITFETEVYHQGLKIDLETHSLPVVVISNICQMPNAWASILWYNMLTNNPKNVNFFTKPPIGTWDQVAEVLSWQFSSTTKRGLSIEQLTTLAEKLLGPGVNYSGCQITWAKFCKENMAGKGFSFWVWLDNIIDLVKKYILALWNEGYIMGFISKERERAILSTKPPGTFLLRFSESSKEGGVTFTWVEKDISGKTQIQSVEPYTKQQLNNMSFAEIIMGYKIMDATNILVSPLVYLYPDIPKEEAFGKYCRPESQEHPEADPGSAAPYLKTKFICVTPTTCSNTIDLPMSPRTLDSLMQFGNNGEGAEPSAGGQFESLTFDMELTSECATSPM

Consider `CS(=O)(=O)Nc1ccc(CCNc2cc(Cl)nc3ccc(-c4ccc(Cl)cc4Cl)cc23)cc1` [Example 57, N-(4-(2-((2-chloro-6-(2,4-dichlorophenyl)quinolin-4-yl)amino)ethyl)phenyl)methanesulfonamide], for which the IC50 in test [1] amounted to 8.6 µM; on STAT3, 17.9 µM.

In the case of `CS(=O)(=O)Nc1ccc(CNC(=O)c2cc(Cl)nc3ccccc23)cc1` [Example 58, 2-chloro-N-(4-(methylsulfonamido)benzyl)quinolin-4-carboxamide], the concentration for half-maximal inhibition (IC50) (in test [1]; on STAT3) was above 50 µM in each case.

Regarding `O=[N+]([O-])c1ccc(C(F)(F)CNc2ncnc3ccccc23)cc1` [Example 59, N-(2,2-difluoro-2-(4-nitrophenyl)ethyl)quinazolin-4-amine], the half-maximal inhibitory concentration (IC50) in test [1] worked out at 0.16 µM; on STAT3 it was 0.35 µM.

With `O=S(=O)(Nc1ccc(CCNc2ncnc3ccccc23)cc1)C(F)(F)F` [Example 60, 1,1,1-trifluoro-N-(4-(2-(quinazolin-4-ylamino)ethyl)phenyl)methanesulfonamide], the IC50 turned out to be 29.5 µM in test [1] and 14 µM at STAT3.

For the compound `O=[N+]([O-])c1ccc(CCNc2ncnc3ccc(F)cc23)cc1` [Example 61, 6-fluoro-N-(4-nitrophenethyl)quinazolin-4-amine], the IC50 in test [1] was found to be 0.19 µM; on STAT3, 0.053 µM.

With `O=[N+]([O-])c1ccc(CCNc2cncc3ccccc23)cc1` [Example 62, N-(4-nitrophenethyl)isoquinolin-4-amine], the IC50 is 23.5 µM in test [1] and 12.1 µM on STAT3.

With `CS(=O)(=O)Nc1ccc(CCNc2cncc3ccccc23)cc1` [Example 63, N-(4-(2-(isoquinolin-4-ylamino)ethyl)phenyl)methanesulfonamide], the IC50 came to 1.9 µM in test [1] and 0.75 µM on STAT3.

Turning to `CS(=O)(=O)Nc1ccc(CCNc2ncnc3ccc(F)cc23)cc1` [Example 64, N-(4-(2-((6-fluoroquinazolin-4-yl)amino)ethyl)phenyl)methanesulfonamide], the concentration for half-maximal inhibition (IC50) in test [1] turned out to be 0.23 µM; on STAT3 it was 0.063 µM.

Take `O=C(Cc1ccc([N+](=O)[O-])cc1)Nc1ncnc2ccccc12` [Example 65, 2-(4-nitrophenyl)-N-(quinazolin-4-yl)acetamide]: the half-inhibitory concentration (IC50) (in test [1]; at STAT3) was above 50 µM throughout.

On to `CS(=O)(=O)Nc1ccc(CCNc2ncnc3ccsc23)cc1` [Example 66, N-(4-(2-(thieno[3,2-d]pyrimidin-4-ylamino)ethyl)phenyl)methanesulfonamide], for which the half-inhibitory concentration (IC50) in test [1] was determined as 0.71 µM; on STAT3, 0.74 µM.

In the case of `O=[N+]([O-])c1ccc(CCNc2nc(Cl)nc3ncccc23)cc1` [Example 67, 2-chloro-N-(4-nitrophenethyl)pyrido[2,3-d]pyrimidin-4-amine], the figures for the IC50 (in test [1]; on STAT3) were 3.7 µM and 4.4 µM, respectively.

Consider `CS(=O)(=O)Nc1ccc(CCNc2ncnc3sccc23)cc1` [Example 68, N-(4-(2-(thieno[2,3-d]pyrimidin-4-ylamino)ethyl)phenyl)methanesulfonamide], for which the concentration for half-maximal inhibition (IC50) in test [1] stood at 0.27 µM; on STAT3, 0.076 µM.

As to `CS(=O)(=O)Nc1ccc(CCNc2ncnc3scnc23)cc1` [Example 69, N-(4-(2-(thiazolo[5,4-d]pyrimidin-7-ylamino)ethyl)phenyl)methanesulfonamide], the IC50 in test [1] turned out to be 0.13 µM; at STAT3, 0.046 µM.

Regarding `CS(=O)(=O)Nc1ccc(CCNc2ncnc3[nH]ccc23)cc1` [Example 70, N-(4-(2-((7H-pyrrolo[2,3-d]pyrimidin-4-yl)amino)ethyl)phenyl)methanesulfonamide], the values for the concentration for half-maximal inhibition (IC50) (in test [1]; at STAT3) were 10.8 µM and 3.8 µM, respectively.

`CS(=O)(=O)Nc1ccc(CCNc2nccc3nccnc23)cc1` [Example 71, N-(4-(2-(pyrido[3,4-b]pyrazin-5-ylamino)ethyl)phenyl)methanesulfonamide]: the values for the IC50 (in test [1]; on STAT3) were 20.9 µM and 9.6 µM, respectively.

On to `Cc1cnc2ccccc2c1NCCc1ccc(NS(C)(=O)=O)cc1` [Example 72, N-(4-(2-((3-methylquinolin-4-yl)amino)ethyl)phenyl)methanesulfonamide], for which the IC50 in test [1] stood at 1.4 µM; at STAT3 it was 0.62 µM.

As to `CS(=O)(=O)Nc1ccc(CCNc2nccc3occc23)cc1` [Example 73, N-(4-(2-(furo[3,2-c]pyridin-4-ylamino)ethyl)phenyl)methanesulfonamide], the values for the concentration for half-maximal inhibition (IC50) (in test [1]; on STAT3) were 33 µM and 35.9 µM, respectively.

In the case of `CS(=O)(=O)Nc1ccc(CCNc2ncc(Cl)c3ccccc23)cc1` [Example 74, N-(4-(2-((4-chloroisoquinolin-1-yl)amino)ethyl)phenyl)methanesulfonamide], the half-inhibitory concentration (IC50) worked out at 13.1 µM in test [1] and 3.9 µM at STAT3.

Regarding `CS(=O)(=O)Nc1ccc(CCNc2nccc3ccccc23)cc1` [Example 75, N-(4-(2-(isoquinolin-1-ylamino)ethyl)phenyl)methanesulfonamide], the IC50 in test [1] was determined as 6 µM; on STAT3, 4.3 µM.

For the compound `COc1cc(NCCc2ccc(NS(C)(=O)=O)cc2)c2ccccc2n1` [Example 76, N-(4-(2-((2-methoxyquinolin-4-yl)amino)ethyl)phenyl)methanesulfonamide], the half-maximal inhibitory concentration (IC50) in test [1] turned out to be 3.9 µM; at STAT3, 1.2 µM.

By IC50 is commonly meant the midpoint of a concentration-inhibition curve.
